Experimental data as given in patent US20220133679A1, “EFFLUX INHIBITOR COMPOSITIONS AND METHODS OF TREATMENT USING THE SAME” (Izumi Technology, LLC, priority 2012, published 2022).
“And” between values parts separate entries of the source, which are not always exact repeats. Equal values may be shown once. Read-outs that look alike come from different tables or passages of the source.

Tests used:
in vivo = conditions: for concentration at 60 min / concentration at 5 min / concentration at 30 min / AUC(0-t): female, FVB (wildtype), mouse, in vivo; for AUC(0-t): iv
Method: The following elacridar nanoparticle suspension was used in these experiments: 5% elacridar w/w plus 1% w/w TPGS, where 2 ml of NP formulation was diluted with 8 ml of 20% TPGS to give a final elacridar concentration of 10 mg/ml.
The drug was mixed, sonicated and administered within 1 h. The dose used was 50 mg/kg (10 μl/g).
The drug was mixed by vortex and administered within 1.5 h. The dose used was 33 mg/kg (10 μl/g).
The drug was administered within 1 h of preparation. The dose used was 5 mg/kg (5 μl/g).
Non-transgenic (wildtype) FVB mice, females, aged 8 to 10 weeks were used. Animals received food and water ad libitum. Mice in the treatment group (n=5) received elacridar NP formulation orally by gavage in the morning (9-10 am). Mice in the control group (n=5) received no elacridar. All mice (treatment and control group) received the therapeutic agent by i.v. injection in the tail vein in the afternoon (3-4 pm). Blood samples (50 μl) were drawn by bleeding from the tip of the tail at 5 min and 30 min after drug administration. At 1 h after API administration the animals were anesthetized using isoflurane and blood was drawn by cardiac puncture. Next, the animal was killed by cervical dislocation and the brains were harvested. Blood was kept on ice until centrifugation (5 min at 5000 g) within 2 h. Brains were kept on ice for weighing and stored at −20° C. until homogenization. Brains were homogenized in 3 ml of 1% w/v of bovine serum albumin in water.
The mice received elacridar at the standard dose of 100 mg/kg. […] The i.v. administration route was selected for the therapeutic agent in order to achieve the most similar plasma exposure of the therapeutic agent between animals receiving therapeutic agent alone or therapeutic agent with elacridar.
Samples were pre-treated as follows. Plasma (5 to 100 μl) was made up to 100 μl with blank human plasma or brain homogenate (100 μl) and pipetted into a 2 ml eppendorf vial. 50 μl of the internal standard (IS) solution (1000 nM of the deuterated analyte) in acetonitrile:water (30:70; v/v) was added. 1000 μl of diethyl ether was added. Tubes were vigorously mixed for at least 5 min then centrifuged (5 min at 5000 g) before being placed in a bath of ethanol with dry-ice in order to freeze the aqueous bottom layer. The organic supernatant was decanted into a clean 1.5 ml Brand vial and evaporated under vacuum in a Speed-Vac (Savant).
For HPLC-MS/MS analyses, the HPLC systems consisted of an Ultimate DGP-3600A pump with a SRD-3600 Solvent Rack and a model WPS-3000TSL autosampler (Dionex, Sunnyvale, Calif., USA). The HPLC column (100×2.1 mm) was packed with 3 um C18 Extend material. The column effluent was guided to an electrospray ionization (ESI) source of an AP13000 mass spectrometer (ABSciex). The mobile phase composition was: Mobile phase A was 0.1% formic acid in water; and Mobile phase B was Methanol (LC-MS quality, Merck).
Pharmacokinetic analyses were performed using the Microsoft Excel add-in program PKsolver (see e.g., Ward K W et al., J Pharmacol Exp Ther 2004; 310: 703-9, which is incorporated herein in its entirety). Calculations for oral administrations were done by the non-compartmental analyses—extravascular model, whereas we used the non-compartmental analysis—bolus model for i.v. injections. The maximum plasma levels (Cmax) were calculated by comparing the means of the plasma levels at each time point. The Tmax is considered the time point at which the Cmax was reached. The half-life (T½) was calculated from the final log-linear part of the plasma concentration-time curves. The area-under-the-curve for the plasma concentration (plasma AUC) was calculated using the linear trapezoidal rule. Both the AUC from time=0 to the last sampling point (48 h) as well as the AUC extrapolated to infinity was calculated. The oral bioavailability was calculated based on the AUC(0-inf) values. Student t-test was used to compare the means of groups where applicable.

[1] = Therapeutic agent brain penetration studies (brain concentration); assay type: in vivo, wildtype FVB mice; conditions: for concentration at 1 h: female; for concentration at 1 h / Brain concentration of loperamide, individual animals / Brain concentration of loperamide, mean: 1 h
Method: The drug was administered within 1 h of preparation.
Animals received food and water ad libitum.
(§1) Samples were pre-treated as follows. […] 1000 μl of diethyl ether was added.

[2] = design: species or system female Sprague-Dawley rats; conditions: rat, in vivo, iv, 5 mg/kg
Method: Studies were conducted in female Sprague-Dawley rats. […] The selected 100 mg/kg dose is well above the level where nonlinear pharmacokinetics have been documented. Ten animals were used at weekly intervals between each dosing to allow washout of the drug from the previous dosing.
Elacridar suspension formulation was prepared by weighing 100.03 mg of elacridar, which was first suspended in 5 ml of water, followed by 5 ml of vehicle solution (2.5% w/v of hydroxypropyl methyl cellulose (HPMC) and 2% v/v of Tween 80). This suspension was stirred for about 2.5 hours prior to dosing. The final concentration was 10 mg/ml. This suspension was given at 10 μl per gram body weight to achieve a dose level of 100 mg/kg
Elacridar nanoparticle (NP) suspensions were used as received, except for a final 5-fold dilution step to obtain a NP suspension of 10 mg/ml of elacridar.
There were three study groups: 1) Elacridar Suspension (n=4); 2) Elacridar TPGS nanoparticles (n=5); and 3) Elacridar Poloxamer nanoparticles (n=5). All animals received elacridar orally by gavage under light isoflurane anesthesia. The animals were fasted for a period of 3 h before drug administration. Food pellets were returned to the cages after the 4 h sampling point. Blood samples from the tail vein at: 15, 30 min, 1, 2, 4, 7, 24, 30 and 48 hours. Samples were kept on ice and centrifuged within 2 h to separate plasma. Plasma was stored at −20° C.
Formulation for i.v. administration was prepared by weighing 61.12 mg of elacridar and dissolving this in 2.056 ml of DMSO. The final concentration was 30 mg/ml. Animals (n=4) received […] per gram body weight (5 mg/kg). Blood samples were taken from the tail vein at: 5, 15, 30 min, 1, 2, 4, 7, 24, 30 and 48 h. Samples were kept on ice and centrifuged within 2 h to separate plasma. Plasma was stored at −20° C.
as §1

[3] = Docetaxel plasma concentration, mean
[4] = loperamide 5 mg/kg i.v. with elacridar TPGS NP 100 mg/kg p.o. about 6 h before
[5] = imatinib with elacridar, 30 min
[6] = imatinib with elacridar, 60 min

Compound: CC(=O)O[C@@]12CO[C@@H]1C[C@H](O)[C@@]1(C)C(=O)[C@H](O)C3=C(C)[C@@H](OC(=O)[C@H](O)[C@@H](NC(=O)OC(C)(C)C)c4ccccc4)C[C@@](O)([C@@H](OC(=O)c4ccccc4)[C@H]21)C3(C)C [docetaxel]
- concentration at 60 min (in vivo; Docetaxel plasma concentration, individual animals): 3030 ng/mL
- concentration at 5 min (in vivo; [3]): 206000 ng/mL
- concentration at 30 min (in vivo; [3]): 12200 ng/mL
- concentration at 60 min (in vivo; [3]): 2570 ng/mL
- AUC(0-t) (in vivo; 33 mg/kg, Docetaxel plasma AUC(0-1 h), individual animals): 54100 ng·h/mL
- AUC(0-t) (in vivo; 33 mg/kg, Docetaxel plasma AUC(0-1 h), mean): 53300 ng·h/mL
- complications of dosing ([1]; mouse, in vivo, iv): without complications

Compound: CN(C)C(=O)C(CCN1CCC(O)(c2ccc(Cl)cc2)CC1)(c1ccccc1)c1ccccc1 [loperamide]
- change of plasma AUC by concomitant elacridar dosing (in vivo; AUC 5 min to 1 h, with vs without elacridar NP): remained unchanged
- concentration at 5 min (in vivo; 5 mg/kg, Loperamide plasma concentration, mean, loperamide alone, 5 min): 1030 ng/mL
- concentration at 30 min (in vivo; 5 mg/kg, Loperamide plasma concentration, mean, loperamide alone, 30 min): 221 ng/mL
- concentration at 60 min (in vivo; 5 mg/kg, Loperamide plasma concentration, mean, loperamide alone, 60 min): 81.4 ng/mL
- concentration at 5 min (in vivo; Loperamide plasma concentration, mean, loperamide with elacridar, 5 min): 989 ng/mL
- concentration at 30 min (in vivo; Loperamide plasma concentration, mean, loperamide with elacridar, 30 min): 184 ng/mL
- concentration at 60 min (in vivo; Loperamide plasma concentration, mean, loperamide with elacridar, 60 min): 140 ng/mL
- AUC(0-t) (in vivo; 5 mg/kg, Loperamide plasma AUC(0-1 h), individual animals, loperamide alone): 740 ng·h/mL
- AUC(0-t) (in vivo; 5 mg/kg, Loperamide plasma AUC(0-1 h), individual animals, loperamide with elacridar): 704 ng·h/mL
- AUC(0-t) (in vivo; 5 mg/kg, Loperamide plasma AUC(0-1 h), mean, loperamide alone): 747 ng·h/mL
- AUC(0-t) (in vivo; 5 mg/kg, Loperamide plasma AUC(0-1 h), mean, loperamide with elacridar): 744 ng·h/mL
- Loperamide plasma AUC(0-1 h), individual animals (in vivo; loperamide alone): 43377.5 ng·min/mL and 43440.0 ng·min/mL and 47625.0 ng·min/mL and 45132.5 ng·min/mL
- Loperamide plasma concentration, individual animals (in vivo; loperamide alone, 5 min): 2500.0 ng/mL and 430.0 ng/mL and 599.0 ng/mL and 679.0 ng/mL and 925.0 ng/mL
- Loperamide plasma concentration, individual animals (in vivo; loperamide alone, 30 min): 191.0 ng/mL and 166.0 ng/mL and 168.0 ng/mL and 354.0 ng/mL and 226.0 ng/mL
- Loperamide plasma concentration, individual animals (in vivo; loperamide alone, 60 min): 111.0 ng/mL and 87.5 ng/mL and 88.0 ng/mL and 26.0 ng/mL and 94.5 ng/mL
- Loperamide plasma AUC(0-1 h), individual animals (in vivo; loperamide with elacridar): 44405.0 ng·min/mL and 46040.0 ng·min/mL and 45978.8 ng·min/mL
- Loperamide plasma concentration, individual animals (in vivo; loperamide with elacridar, 5 min): 1220.0 ng/mL and 306.0 ng/mL and 376.0 ng/mL and 511.0 ng/mL and 2530.0 ng/mL
- Loperamide plasma concentration, individual animals (in vivo; loperamide with elacridar, 30 min): 115.0 ng/mL and 178.0 ng/mL and 163.0 ng/mL and 282.0 ng/mL
- Loperamide plasma concentration, individual animals (in vivo; loperamide with elacridar, 60 min): 106.0 ng/mL and 134.0 ng/mL and 270.5 ng/mL and 48.3 ng/mL
- complications of dosing ([1]; FVB mice, i.v., control group (no elacridar)): went smoothly
- complications of dosing ([1]; FVB mice, loperamide 5 mg/kg i.v. and elacridar NP 100 mg/kg p.o.): one animal died within 5 minutes after drug administration, whereas another animal had to be sacrificed at 45 min
- concentration at 1 h ([1]; FVB (wildtype), mouse, in vivo, loperamide 5 mg/kg i.v. with elacridar TPGS NP 100 mg/kg p.o. about 6 h before, read-out: Brain concentration of loperamide, individual animals): 2910 ng/g
- concentration at 1 h ([1]; FVB, mouse, in vivo, 5 mg/kg, loperamide 5 mg/kg i.v. alone, read-out: Brain concentration of loperamide, mean): 73 ng/g
- concentration at 1 h ([1]; FVB, mouse, in vivo, loperamide 5 mg/kg i.v. with elacridar TPGS NP 100 mg/kg p.o. about 6 h before, read-out: Brain concentration of loperamide, mean): 3700 ng/g
- Brain concentration of loperamide, individual animals ([1]; loperamide 5 mg/kg i.v. alone): 83.8 ng/g and 79.4 ng/g and 84.1 ng/g and 78.1 ng/g and 41.6 ng/g
- Brain concentration of loperamide, mean ([1]; loperamide 5 mg/kg i.v. alone): 73.4 ng/g
- Brain concentration of loperamide, individual animals [1, 4]: 4376.5 ng/g and 4288.7 ng/g and 3981.2 ng/g and 2933.5 ng/g
- Brain concentration of loperamide, mean [1, 4]: 3697.8 ng/g
- increase of brain penetration by concomitant elacridar NP ([1]; with vs without elacridar TPGS NP 100 mg/kg p.o., brain at 1 h): 50 fold

Compound: DMSO
- AUC(0-48 h) [2]: 260.3 µg·min/mL
- AUC(0-inf) [2]: 272.2 µg·min/mL
- Cmax [2]: 826.5 ng/mL
- F [2]: 100.0%
- Tmax [2]: 0 h
- T½ [2]: 6.9 h

Compound: imatinib
- Imatinib plasma concentration, individual animals (in vivo; imatinib alone, 5 min): 49100 ng/mL and 50400 ng/mL and 38200 ng/mL and 61300 ng/mL and 48900 ng/mL
- Imatinib plasma concentration, mean (in vivo; imatinib alone, 5 min): 49580.0 ng/mL
- Imatinib plasma concentration, individual animals (in vivo; imatinib alone, 30 min): 6590 ng/mL and 11500 ng/mL and 7690 ng/mL and 13200 ng/mL and 11600 ng/mL
- Imatinib plasma concentration, mean (in vivo; imatinib alone, 30 min): 10116.0 ng/mL
- Imatinib plasma concentration, individual animals (in vivo; imatinib alone, 60 min): 1920 ng/mL and 1260 ng/mL and 2350 ng/mL and 2050 ng/mL and 2760 ng/mL
- Imatinib plasma concentration, mean (in vivo; imatinib alone, 60 min): 2068.0 ng/mL
- Imatinib plasma concentration, individual animals (in vivo; imatinib with elacridar, 5 min): 90800 ng/mL and 43500 ng/mL and 50000 ng/mL and 34400 ng/mL and 37900 ng/mL
- Imatinib plasma concentration, mean (in vivo; imatinib with elacridar, 5 min): 51320.0 ng/mL
- Imatinib plasma concentration, individual animals (in vivo; [5]): 11000 ng/mL and 7860 ng/mL and 11700 ng/mL and 8910 ng/mL and 12600 ng/mL
- Imatinib plasma concentration, mean (in vivo; [5]): 10414.0 ng/mL
- Imatinib plasma concentration, individual animals (in vivo; [6]): 3630 ng/mL and 5580 ng/mL and 3840 ng/mL and 4710 ng/mL and 4100 ng/mL
- Imatinib plasma concentration, mean (in vivo; [6]): 4372.0 ng/mL
- complications of dosing ([1]; mouse, in vivo, iv): without complications
